Laboratory results reported in patent US20150246058A1, “COMPOSITION FOR PREVENTING HAIR LOSS AND ACCELERATING HAIR GROWTH” (RNS CO., LTD., priority 2012, published 2015).

Experiments:
5α-reductase = 5α-reductase inhibitory efficacy: DHT produced in testosterone-stimulated dermal papilla cells (DHT ELISA); type: cell-based; conditions: 50 nM testosterone, 24 hours, produced DHT relative to control
Method: After seeding 1 ml of dermal papilla cells (DPCs) by 5×10^5/ml into each well of a 24-well plate, then incubating the same for 24 hours, each of the reaction products prepared according to procedures described in Examples 1 to 72 was added in amounts of 50 μg/ml, 10 μg/ml and 0 μg/ml, respectively, to individual wells. After 1 hour, the wells were subjected to stimulation using 50 nM testosterone (DMSO dissolved). The supernatant was discarded 24 hours after culturing, to thus obtain DPc pellets. A content of dihydrotestosterone (DHT) (DB52021, Hamburg, Germany) was determined by means of enzyme-linked immune-sorbent assay. DPCs cell pellets were seeded in an amount of 100 μL into each of Dihydrotestosterone (DHT) ELISA microtiter strips coated with rabbit anti-DHT antibody, 25 μL of DHT antiserum was seeded in every well, and subjected to a reaction at 2 to 8° C. for 15 to 20 hours, followed by washing the same three times. Thereafter, 100 μL of DHT-HRP enzyme conjugate was seeded in every well and reacted on a shaker at room temperature for 30 minutes, followed by washing the same three times. Furthermore, 100 μL of substrate was seeded in every well and reacted on a shaker at room temperature for 20 to 30 minutes. Then, the product was treated using 100 μL stop solution, and subjected to measurement of absorbance at 450 nm to express an amount of produced DHT by the absorbance (three times repeated). An amount of produced DHT relative to a control was calculated in terms of an inhibitory rate (%), and results thereof are shown in Table 3 below.

mice (C57BL/6, female) = assay: Assessment of anagen phase induction and promotion in shaved mice; type: in vivo
Method: Experimentation for effects of inducing and promoting an anagen phase (that is, hair growth period) was performed with 7 weeks-old mice (C57BL/6, female) widely used in assessment of activity for anagen phase induction. First, using an electric shaver, hair on the dorsal part of a mouse was removed. Each mouse was weighed and all mice were divided into groups, each group having five (5) mice, in order to uniformly disperse body weights of the mice. Hair cut regions were coated with an excipient, control and test medicine, respectively. In this regard, the excipient was 95% ethanol, the control was 2% minoxidil, and the test medicine used herein was the compound in Example 8 diluted with 95% ethanol to have a final concentration of 0.5%. Using a brush, each of the above test samples was sufficiently applied to the dorsal part of each mouse once per day.

[1] = 20 days after experimentation, topical once per day on shaved dorsal part, five mice per group, Minoxidil 2%, Example 8 0.5% in 95% ethanol

Row | Compound | 5α-reductase inhibitory rate (%) (5α-reductase; sample concentration 10 μg/ml) | 5α-reductase inhibitory rate (%) (5α-reductase; sample concentration 50 μg/ml) | other results
1 | COC1CCC2(C)C(CCC3(C)C2CC=C2C4CC(C)(C)CCC4(C)CCC23C)C1(C)C (stereo not drawn) [Compound in Example 50, O-methyl-β-amyrin] | 16 | 31 | 
2 | CCCCCOC1CCC2(C)C(CCC3(C)C2CC=C2C4CC(C)(C)CCC4(C)CCC23C)C1(C)C (stereo not drawn) [Compound in Example 51, O-pentyl-β-amyrin] | 22 | 38 | 
3 | CCCCCCCCOC1CCC2(C)C(CCC3(C)C2CC=C2C4CC(C)(C)CCC4(C)CCC23C)C1(C)C (stereo not drawn) [Compound in Example 52, O-octyl-β-amyrin] | 28 | 43 | 
4 | CCCCCCCCOC1CCC2(C)C(CCC3(C)C2CC=C2C4C(C)C(C)CCC4(C)CCC23C)C1(C)C (stereo not drawn) [Compound in Example 55, O-octyl-α-amyrin] | 24 | 38 | 
5 | CCCCCCCCOC1CCC2(C)C(=CCC3C2CCC2(C)C(C(C)CCC(CC)C(C)C)CCC32)C1 (stereo not drawn) [Compound in Example 57, O-octyl-β-sitosterol] | 21 | 41 | 
6 | CCCCCCCCCCCCCCCCCCO[C@H]1CC[C@@]2(C)C(=CC[C@H]3[C@@H]4CC[C@H]([C@H](C)CC[C@@H](CC)C(C)C)[C@@]4(C)CC[C@@H]32)C1 [Compound in Example 58, O-octadecyl-β-sitosterol] | 31 | 46 | 
7 | CCCCCCCCOC1CCC2(C)C(CCC3(C)C2CC=C2C4C(C)C(C)CCC4(C(=O)O)CCC23C)C1(C)C (centres unmarked) [Compound in Example 59, O-octyl-ursolic acid] | 22 | 41 | 
8 | CCCCCCCCCCCCCCCCCCOC1CCC2(C)C(CCC3(C)C2CC=C2C4C(C)C(C)CCC4(C(=O)O)CCC23C)C1(C)C (centres unmarked) [Compound in Example 60, O-octadecyl-ursolic acid] | 35 | 49 | 
9 | CCCCCCCCOC1CCC2(C)C(CCC3(C)C2CC=C2C4CC(C)(C)CCC4(C(=O)O)CCC23C)C1(C)C (centres unmarked) [Compound in Example 61, O-octyl-oleanolic acid] | 22 | 37 | 
10 | CCCCCCCCOC1CCC2(C)C(CCC3(C)C2CC=C2C4CC(C)(C)CCC4(C)CCC23C)C1(C)C(=O)O (stereo not drawn) [Compound in Example 63, O-octyl-α-boswellic acid] | 21 | 34 | 
11 | C=C(C)C1CCC2(C(=O)O)CCC3(C)C(CCC4C5(C)CCC(OCCCCCCCC)C(C)(C)C5CCC43C)C12 (centres unmarked) [Compound in Example 65, O-octyl-betulinic acid] | 19 | 31 | 
12 | CCCCCCCCOC1CCC2(C)C(CCC3(C)C2C(=O)C=C2C4CC(C)(C(=O)O)CCC4(C)CCC23C)C1(C)C (centres unmarked) [Compound in Example 66, O-octyl-glycyrrhetinic acid] | 33 | 51 | 
13 | CCCCCCCCOC1CCC2(C)C(=CCC3C2CCC2(C)C(C(C)CCC=C(C)C)CCC32)C1 (centres unmarked) [Compound in Example 67, O-octyl-desmosterol] | 24 | 41 | 
14 | CCCCCCCCO[C@H]1CC[C@@]2(C)C(=CC[C@H]3[C@@H]4CC[C@H]([C@H](C)CCCC(C)C)[C@@]4(C)CC[C@@H]32)C1 [Compound in Example 68, O-octyl-cholesterol] | 35 | 45 | 
15 | CCCCCCCCOC1CCC2(C)C(=CCC3C2CCC2(C)C(C(C)C=CC(CC)C(C)C)CCC32)C1 (centres unmarked) [Compound in Example 69, O-octyl-stigmasterol] | 19 | 33 | 
16 | CCCCCCCCOC1CCC2(C)C(=CCC3C2CCC2(C)C(C(C)CCC(C)C(C)C)CCC32)C1 (centres unmarked) [Compound in Example 70, O-octyl-campesterol] | 28 | 51 | 
17 | CCCCCCCCOC1CCC2(C)C(=CCC3C2CCC2(C)C(C(C)C=CC(C)C(C)C)CCC32)C1 (centres unmarked) [Compound in Example 71, O-octyl-brassicasterol] | 29 | 38 | 
18 | C/C=C(\CC[C@@H](C)[C@H]1CC[C@H]2[C@@H]3CC=C4C[C@@H](OCCCCCCCC)CC[C@]4(C)[C@H]3CC[C@]12C)C(C)C [Compound in Example 72, O-octyl-fucosterol] | 19 | 35 | 
19 | Nc1cc(N2CCCCC2)nc(N)[n+]1[O-] [Minoxidil, minoxidil, reference compound] |  |  | Number of mouse graded + (improved) (mice (C57BL/6, female); [1]): 1; Number of mouse graded ++ (remarkably improved) (mice (C57BL/6, female); [1]): 2; Number of mouse graded ± (slightly improved) (mice (C57BL/6, female); [1]): 1; Number of mouse graded − (not changed) (mice (C57BL/6, female); [1]): 1
20 | O-dodecyl-β-amyrin [Compound in Example 53] | 31 | 41 | 

Row | Compound | 5α-reductase inhibitory rate (%) (5α-reductase; sample concentration 10 μg/ml) | 5α-reductase inhibitory rate (%) (5α-reductase; sample concentration 50 μg/ml) | other results
21 | O-octadecyl-oleanolic acid [Compound in Example 62] | 29 | 51 | 
22 | O-octadecyl-α-amyrin [Compound in Example 56] | 38 | 49 | 
23 | O-octadecyl-β-amyrin [Compound in Example 54] | 35 | 48 | 
24 | O-octyl-β-boswellic acid [Compound in Example 64] | 35 | 51 | 
25 | betulinic acid stearate [Compound in Example 33] | 31 | 51 | 
26 | brassicasterol stearate [Compound in Example 47] | 24 | 39 | 
27 | desmosterol stearate [Compound in Example 39] | 26 | 41 | 
28 | dihydroandrosterone stearate [Compound in Example 37] | 24 | 38 | 
29 | fucosterol stearate [Compound in Example 49] | 25 | 41 | 
30 | glycyrrhetinic acid stearate [Compound in Example 35] | 24 | 39 | 
31 | oleanolic acid acetate [Compound in Example 23] | 11 | 23 | 
32 | oleanolic acid stearate [Compound in Example 25] | 35 | 41 | 
33 | ursolic acid acetate [Compound in Example 19] | 22 | 31 | 
34 | ursolic acid stearate [Compound in Example 21] | 35 | 51 | 
35 | α-amyrin stearate [Compound in Example 13] | 45 | 57 | 
36 | α-boswellic acid stearate [Compound in Example 28] | 37 | 51 | 
37 | β-amyrin behenate [Compound in Example 9] | 38 | 59 | 
38 | β-amyrin laurate [Compound in Example 6] | 43 | 59 | 
39 | β-amyrin stearate [Compound in Example 8] | 48 | 63 | hair growth in the hair cut region (in words) (mice (C57BL/6, female); 0.5% in 95% ethanol, topical once per day, Table 4 and FIG. 1): rapid hair growth; Number of mouse graded + (improved) (mice (C57BL/6, female); [1]): 1; Number of mouse graded ++ (remarkably improved) (mice (C57BL/6, female); [1]): 3; Number of mouse graded ± (slightly improved) (mice (C57BL/6, female); [1]): 1
40 | β-boswellic acid stearate [Compound in Example 31] | 31 | 47 | 
